Source: patent US12257251B2, “Use of FAK inhibitor in preparation of drug for treating tumors having NRAS mutation” (INXMED (NANJING) CO., LTD., priority 2019, dated 2025)

Columns and labels:
[1] = Body weight change (tolerability) in the KYSE-270 xenograft study; assay type: in vivo, mouse
Protocol: (§1) 1.7. Monitoring tumor growth and side effects: Tumor diameters were measured with calipers three times a week. The volume [mm^3] of each tumor was calculated according to the equation “tumor volume=length×diameter^2×π/6”. To monitor the side effects of the treatment, the mice were checked daily for abnormalities and their body weights were measured three times a week. For ethical reasons, animals with tumors larger than 1.5 cm in diameter, ulcerated tumors, or 20% body weight loss were euthanized.
(§2) The wilcoxon test was used for comparison. For body weight, the percent change relative to initial body weight on day 1 was used as the target variable for statistical analysis. The number of animals, and the median, minimum and maximum weight changes in each group were calculated.
(§3) One-sided test to compare all treatment groups with control group was performed for observing: • reduction in tumor volume (inhibition of tumor growth, efficacy parameter) and • reduction in weight changes (weight loss, tolerance parameters).
Within each subtopic, p-values for the efficacy parameter were compared and adjusted for multiple times according to Bonferroni-Holm. The p-value for the tolerance parameter was kept constant so as not to overlook possible side effects. Significance level was fixed at α=5%. A p-value (adjusted) of less than 0.05 was considered to show a statistically significant difference between groups, and 0.05≤p-value<0.10 was considered as an indicative difference. Statistical evaluations were performed using the SAS software package version 9.4 (SAS Institute Inc., Cary NC, USA).

[2] = tested on: human esophageal cancer cell line KYSE-270; assay: Subcutaneous xenograft of human esophageal cancer cell line KYSE-270 in NMRI nude mice: tumor growth; assay type: in vivo, mouse; details: for Tumor shrinkage [x/y]: Paclitaxel 10 mg/Kg q7d
Protocol: 1.1. Model: Subcutaneous xenograft of human esophageal cancer cell line KYSE-270 in NMRI nude mice.
1.3. Cells: KYSE-270 is an esophageal cancer cell line (Public Health England, catalog number: 94072021). Cells were cultured in T175 tissue culture flasks containing 5% CO2 at 37° C. The medium was RPMI 1640+HAM F12 (1:1) supplemented with 2% FCS and 2 mM Glutamax. Passage was performed three times a week at a ratio of 1:2.
1.4. Mice: Mice were 8 to 10 week old female mice (BomTac: NMRI-Foxn1^nu) purchased from Taconic®, Denmark. Upon arrival in the animal room, the mice were allowed to acclimate for at least 5 days before being used for assay. The animals were housed under standard conditions (temperature: 21.5±1.5° C., humidity: 55+10%), 7 to 10 mice for each group. A standard diet and autoclaved tap water were provided for ad libitum feeding. A subcutaneous microchip implanted under isoflurane anesthesia was used to identify each mouse.
1.5. Random establishment of tumors: To establish subcutaneous tumors, KYSE-270 cells were harvested by centrifugation, washed and resuspended in PBS+5% FCS at a concentration of 5×10^7 cells/ml. Then 100 l of cell suspension containing 5×10^6 cells was injected subcutaneously into the right flank of mice (1 site per mouse). When tumors were well established and reached a volume of 94 to 252 mm^3, mice were randomly assigned to the treatment group and the control group (13 days after cell injection).
1.6. Administration: BI 853520 was suspended in 0.5% hydroxyethyl cellulose, which was administered intragastrically through gavage needle every day, and the dosage was 10 mL/Kg body weight. Paclitaxel was dissolved in saline (0.9% NaCl), which was administered intravenously in a volume of 10 ml/kg body weight. The suspension of BI853520 could be used for up to 7 days. Paclitaxel solution was stored at 6° C. and used for up to 14 days.
as §1
Statistical assessment of tumor volume and body weight on day 13 was performed. Animal number 1 (control group) was excluded from the statistical evaluation because of weight loss and had to be euthanized early (day 9). Measured tumor volume was used as the target variable in the statistical analysis. The number of animals and the median, minimum and maximum tumor volumes in each group were calculated. For a quick overview of possible treatment effects, the median tumor volume for each treatment group T and the median tumor volume for the control group C were used to calculate TGI: TGI=100×[(Cd−C1)−(Td−T1)]/(Cd−C1) • wherein, C1, T1=median tumor volume in control and treatment groups at the start of the assay (day 1). • Cd, Td=median tumor volume in control and treatment groups at the end of the assay (day 13).
as §2, §3
Within each subtopic, p-values for the efficacy parameter were compared and adjusted for multiple times according to Bonferroni-Holm. The p-value for the tolerance parameter was kept constant so as not to overlook possible side effects. […]

CC(=O)O[C@H]1C(=O)[C@@]2(C)[C@H]([C@H](OC(=O)c3ccccc3)[C@]3(O)C[C@H](OC(=O)[C@H](O)[C@@H](NC(=O)c4ccccc4)c4ccccc4)C(C)=C1C3(C)C)[C@]1(OC(C)=O)CO[C@@H]1C[C@@H]2O [Paclitaxel, reference compound]
Change in median weight ([1]; Paclitaxel 10 mg/Kg q7d, day 13 versus day 1): −9.7%
Reduction in the median body weight ([1]; Paclitaxel 10 mg/kg once a week, day 13, given as a decrease): 9.7%
Tumor shrinkage [x/y] ([2]; day 13): 0/7
Tumor shrinkage [x/y] ([2]; day 13, listed as paclitaxel): none
TGI ([2]; Paclitaxel 10 mg/Kg q7d i.v., day 13): 2%
Median tumor volume ([2]; paclitaxel 10 mg/kg once a week, day 13 (start 190 mm^3)): 1033 mm^3
